Measured values taken from patent publication US20230143612A1 (Arbutus Biopharma Corporation, priority 2020, published 2023).

These compounds were tested against PD-L1 His protein / PD-1 Fc protein (Homo sapiens, UniProt Q9NZQ7) (assay: HTRF Assay (PD-1/PD-L1 interaction)). Settings: PD-L1 His 6 nM, PD-1 Fc 6 nM.
Assay type: binding
How it was run: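 HTRF: PD-L1 His (6 nM final), compound (3-fold dilutions, 20 μM to 0.001 μM final) and PD-1 Fc (6 nM final) preincubated 15 min at room temperature. Anti-human IgG-XL665 and anti-6HIS Tb cryptate (mixed at 6.7 nM and 0.35 nM) then added for 1 h at room temperature before reading.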

Chain of PD-L1 His protein / PD-1 Fc protein (Q9NZQ7 19-238 limits assumed): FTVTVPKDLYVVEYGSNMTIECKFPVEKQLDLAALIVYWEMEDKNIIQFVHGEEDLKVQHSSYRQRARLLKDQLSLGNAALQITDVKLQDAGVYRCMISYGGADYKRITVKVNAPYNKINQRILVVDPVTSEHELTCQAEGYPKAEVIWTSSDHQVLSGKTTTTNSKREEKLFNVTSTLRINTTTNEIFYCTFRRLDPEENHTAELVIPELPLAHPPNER

| Compound | IC50 [nM] |
| --- | --- |
| Cc1c(-c2ccn3c(=O)c(CNC[C@@H]4CCC(=O)N4)cnc3c2)cccc1-c1cccc(-c2ccc(CNC[C@@H]3CCC(=O)N3)c(N(C)C)n2)c1Cl [Example 64, 8-(2′-Chloro-3′-(6-(dimethylamino)-5-(((((S)-5-oxopyrrolidin-2-yl)methyl)amino)methyl)pyridin-2-yl)-2-methyl-[1,1′-biphenyl]-3-yl)-3-(((((S)-5-oxopyrrolidin-2-yl)methyl)amino)methyl)-4H-pyrido[1,2-a]pyrimidin-4-one] | 37 |
| Cc1c(-c2ccn3c(=O)c(CNC[C@@H]4CCC(=O)N4)cnc3c2)cccc1-c1cccc(-c2ccc(CNC[C@@H]3CCC(=O)N3)cc2)c1Cl [Example 65, 8-(2′-Chloro-2-methyl-4″-(((((S)-5-oxopyrrolidin-2-yl)methyl)amino)methyl)-[1,1′:3′,1″-terphenyl]-3-yl)-3-(((((S)-5-oxopyrrolidin-2-yl)methyl)amino)methyl)-4H-pyrido[1,2-a]pyrimidin-4-one] | 5.6 |
| COc1cc(-c2cccc(-c3cccc(-c4ccn5c(=O)c(CNC[C@@H]6CCC(=O)N6)cnc5c4)c3C)c2Cl)ccc1CNC[C@@H]1CCC(=O)N1 [Example 66, 8-(2′-Chloro-3″-methoxy-2-methyl-4″-(((((S)-5-oxopyrrolidin-2-yl)methyl)amino)methyl)-[1,1′:3′,1″-terphenyl]-3-yl)-3-(((((S)-5-oxopyrrolidin-2-yl)methyl)amino)methyl)-4H-pyrido[1,2-a]pyrimidin-4-one] | 5.2 |
| Cc1c(-c2ccn3c(=O)c(CNC[C@@H]4CCC(=O)N4)cnc3c2)cccc1-c1cccc(-c2ccc(CNC[C@@H]3CCC(=O)N3)c(Cl)c2)c1Cl [Example 67, 8-(2′,3″-Dichloro-2-methyl-4″-(((((S)-5-oxopyrrolidin-2-yl)methyl)amino)methyl)-[1,1′:3′,1″-terphenyl]-3-yl)-3-(((((S)-5-oxopyrrolidin-2-yl)methyl)amino)methyl)-4H-pyrido[1,2-a]pyrimidin-4-one] | 3.5 |
| COc1nc(-c2cccc(-c3cccc(-c4ccn5c(=O)c(CNCCNC(C)=O)cnc5c4)c3Cl)c2Cl)ccc1CNCCNC(C)=O [Example 69, N-(2-(((6-(3′-(3-(((2-Acetamidoethyl)amino)methyl)-4-oxo-4H-pyrido[1,2-a]pyrimidin-8-yl)-2,2′-dichloro-[1,1′-biphenyl]-3-yl)-2-methoxypyridin-3-yl)methyl)amino)ethyl)acetamide] | 1.9 |
| COc1nc(-c2cccc(-c3cccc(-c4ccn5c(=O)c(CN6CC7(CNC(=O)C7)C6)cnc5c4)c3Cl)c2Cl)ccc1CN1CC2(CNC(=O)C2)C1 [Example 70, 8-(2,2′-Dichloro-3′-(6-methoxy-5-((7-oxo-2,6-diazaspiro[3.4]octan-2-yl)methyl)pyridin-2-yl)-[1,1′-biphenyl]-3-yl)-3-((7-oxo-2,6-diazaspiro[3.4]octan-2-yl)methyl)-4H-pyrido[1,2-a]pyrimidin-4-one] | 7.1 |
| COc1nc(-c2cccc(-c3cccc(-c4ccn5c(=O)c(CNC[C@@H]6CCC(=O)N6)cnc5c4)c3Cl)c2Cl)cnc1N1CC(N)C1 [Example 71, (S)-8-(3′-(5-(3-Aminoazetidin-1-yl)-6-methoxypyrazin-2-yl)-2,2′-dichloro-[1,1′-biphenyl]-3-yl)-3-((((5-oxopyrrolidin-2-yl)methyl)amino)methyl)-4H-pyrido[1,2-a]pyrimidin-4-one] | 2 |
| CCOc1nc(-c2cccc(-c3cccc(-c4ccn5c(=O)c(CNC[C@@H]6CCC(=O)N6)cnc5c4)c3C)c2Cl)ccc1CNC[C@@H]1CCC(=O)N1 [Example 72, 8-(2′-Chloro-3′-(6-ethoxy-5-(((((S)-5-oxopyrrolidin-2-yl)methyl)amino)methyl)pyridin-2-yl)-2-methyl-[1,1′-biphenyl]-3-yl)-3-(((((S)-5-oxopyrrolidin-2-yl)methyl)amino)methyl)-4H-pyrido[1,2-a]pyrimidin-4-one] | 9.4 |
| CNc1nc(-c2cccc(-c3cccc(-c4ccn5c(=O)c(CNC[C@@H]6CCC(=O)N6)cnc5c4)c3C)c2Cl)ccc1CNC[C@@H]1CCC(=O)N1 [Example 73, 8-(2′-Chloro-2-methyl-3′-(6-(methylamino)-5-(((((S)-5-oxopyrrolidin-2-yl)methyl)amino)methyl)pyridin-2-yl)-[1,1′-biphenyl]-3-yl)-3-(((((S)-5-oxopyrrolidin-2-yl)methyl)amino)methyl)-4H-pyrido[1,2-a]pyrimidin-4-one] | 6.3 |
| CCNc1nc(-c2cccc(-c3cccc(-c4ccn5c(=O)c(CNC[C@@H]6CCC(=O)N6)cnc5c4)c3C)c2Cl)ccc1CNC[C@@H]1CCC(=O)N1 [Example 74, 8-(2′-Chloro-3′-(6-(ethylamino)-5-(((((S)-5-oxopyrrolidin-2-yl)methyl)amino)methyl)pyridin-2-yl)-2-methyl-[1,1′-biphenyl]-3-yl)-3-(((((S)-5-oxopyrrolidin-2-yl)methyl)amino)methyl)-4H-pyrido[1,2-a]pyrimidin-4-one] | 15 |
| COc1nc(-c2cccc(-c3cccc(-c4ccn5c(=O)c(CNCCO)cnc5c4)c3Cl)c2Cl)ccc1CNCCO [Example 75, 8-(2,2′-Dichloro-3′-(5-(((2-hydroxyethyl)amino)methyl)-6-methoxypyridin-2-yl)-[1,1′-biphenyl]-3-yl)-3-(((2-hydroxyethyl)amino)methyl)-4H-pyrido[1,2-a]pyrimidin-4-one] | 3.4 |
| Cc1c(-c2ccn3c(=O)c(CNC[C@@H]4CCC(=O)N4)cnc3c2)cccc1-c1cccc(-c2ccc3c(c2)CCC3NC[C@@H]2CCC(=O)N2)c1Cl (stereo partly drawn) [Example 76, 8-(2′-Chloro-2-methyl-3′-(1-((((S)-5-oxopyrrolidin-2-yl)methyl)amino)-2,3-dihydro-1H-inden-5-yl)-[1,1′-biphenyl]-3-yl)-3-(((((S)-5-oxopyrrolidin-2-yl)methyl)amino)methyl)-4H-pyrido[1,2-a]pyrimidin-4-one] | 3.4 |
| COc1cc(-c2cccc(-c3cccc(-c4ccn5c(=O)c(CNC[C@@H]6CCC(=O)N6)cnc5c4)c3C)c2Cl)ncc1CNC[C@@H]1CCC(=O)N1 [Example 77, 8-[3-[2-Chloro-3-[4-methoxy-5-[[[(2S)-5-oxopyrrolidin-2-yl]methylamino]methyl]-2-pyridyl]phenyl]-2-methyl-phenyl]-3-[[[(2S)-5-oxopyrrolidin-2-yl]methylamino]methyl]pyrido[1,2-a]pyrimidin-4-one] | 6.3 |
| Cc1c(-c2ccn3c(=O)c(CNC[C@@H]4CCC(=O)N4)cnc3c2)cccc1-c1cccc(-c2ccc(CNC[C@@H]3CCC(=O)N3)c(C(F)(F)F)n2)c1Cl [Example 78, 8-(2′-Chloro-2-methyl-3′-(5-(((((S)-5-oxopyrrolidin-2-yl)methyl)amino)methyl)-6-(trifluoromethyl)pyridin-2-yl)-[1,1′-biphenyl]-3-yl)-3-(((((S)-5-oxopyrrolidin-2-yl)methyl)amino)methyl)-4H-pyrido[1,2-a]pyrimidin-4-one] | 16 |
| Cc1nc(-c2cccc(-c3cccc(-c4ccn5c(=O)c(CNC[C@@H]6CCC(=O)N6)cnc5c4)c3C)c2Cl)ccc1CNC[C@@H]1CCC(=O)N1 [Example 79, 8-(2′-Chloro-2-methyl-3′-(6-methyl-5-(((((S)-5-oxopyrrolidin-2-yl)methyl)amino)methyl)pyridin-2-yl)-[1,1′-biphenyl]-3-yl)-3-(((((S)-5-oxopyrrolidin-2-yl)methyl)amino)methyl)-4H-pyrido[1,2-a]pyrimidin-4-one] | 2.8 |
| COc1nc(-c2cccc(-c3cccc(-c4ccn5c(=O)c(CNCCO)cnc5c4)c3Cl)c2Cl)ccc1CNC[C@@H]1CCC(=O)N1 [Example 80, (S)-8-(2,2′-Dichloro-3′-(6-methoxy-5-((((5-oxopyrrolidin-2-yl)methyl)amino)methyl)pyridin-2-yl)-[1,1′-biphenyl]-3-yl)-3-(((2-hydroxyethyl)amino)methyl)-4H-pyrido[1,2-a]pyrimidin-4-one] | 4.2 |
| COc1nc(-c2cccc(-c3cccc(-c4ccn5c(=O)c(CNCCNC(C)=O)cnc5c4)c3Cl)c2Cl)ccc1CNC[C@@H]1CCC(=O)N1 [Example 81, (S)—N-(2-(((8-(2,2′-Dichloro-3′-(6-methoxy-5-((((5-oxopyrrolidin-2-yl)methyl)amino)methyl)pyridin-2-yl)-[1,1′-biphenyl]-3-yl)-4-oxo-4H-pyrido[1,2-a]pyrimidin-3-yl)methyl)amino)ethyl)acetamide] | 8.3 |
| COc1nc(-c2cccc(-c3cccc(-c4ccn5nc(CNC[C@@H]6CCC(=O)N6)cc5n4)c3Cl)c2Cl)ccc1CNC[C@@H]1CCC(=O)N1 [Example 82, (S)-5-((((6-(2,2′-Dichloro-3′-(2-(((((S)-5-oxopyrrolidin-2-yl)methyl)amino)methyl)pyrazolo[1,5-a]pyrimidin-5-yl)-[1,1′-biphenyl]-3-yl)-2-methoxypyridin-3-yl)methyl)amino)methyl)pyrrolidin-2-one] | 9.9 |
| COc1nc(-c2cccc(-c3cccc(-c4ccn5c(=O)c(CN6CC[C@H](C(=O)O)C6)cnc5c4)c3Cl)c2Cl)ccc1CN1CC(CO)C1 [Example 83, (S)-1-((8-(2,2′-Dichloro-3′-(5-((3-(hydroxymethyl)azetidin-1-yl)methyl)-6-methoxypyridin-2-yl)-[1,1′-biphenyl]-3-yl)-4-oxo-4H-pyrido[1,2-a]pyrimidin-3-yl)methyl)pyrrolidine-3-carboxylic acid] | 0.4 |
| COc1nc(-c2cccc(-c3cccc(-c4ccn5c(=O)c(CN6CC(C(=O)O)C6)cnc5c4)c3Cl)c2Cl)ccc1CN1CC(CO)C1 [Example 84, 1-((8-(2,2′-Dichloro-3′-(5-((3-(hydroxymethyl)azetidin-1-yl)methyl)-6-methoxypyridin-2-yl)-[1,1′-biphenyl]-3-yl)-4-oxo-4H-pyrido[1,2-a]pyrimidin-3-yl)methyl)azetidine-3-carboxylic acid] | 0.3 |
